# pIC50: −log10 of the molar value.
# Target: T1, PDE10A2 (Homo sapiens, UniProt Q9Y233)
# T1 construct: residues serine 449 to aspartate 789; His6 (H6) with Gateway linker and thrombin cleavage site (N, cleaved yes); made in house; host or cells: E. coli BL21(DE3) pLysS
# Assay: PDE10A2 Scintillation Proximity Assay (SPA), [3H]-cGMP hydrolysis
# Format: biochemical
# Settings: catalytic domain of human PDE10A2 (S449-D789), 0.25 nM enzyme, 50 nM cGMP + 50 nM [3H]-cGMP, 30 minutes at room temperature; read-out: PDE10A2 inhibition IC50
# Method: The following tests were carried out in order to determine the activity of the compounds of the present invention. PDE10 activity of the compounds of the present invention is determined using a Scintillation Proximity Assay (SPA)-based method similar to the one previously described (Fawcett, L. et al., ProcNatl Acad Sci USA (2000) 97(7):3702-3707).
# PDE10A1 and PDE10A2 are two splice variants of PDE10A. There are these 2 splice variants known, which differ in the N-terminal part of the protein. The catalytic domains of PDE10A1 and PDE10A2 are identical. The assay for PDE10A2 described below is therefore also representative for PDE10A1 and also for PDE10A in general.
# The PDE10A2 assay was performed in a two step procedure in 96-well micro titer plates. The reaction mixture of 80 μl contained 20 mM HEPES/10 mM MgCl2/[…] (pH 7.5), 50 nM cGMP (Sigma) and 50 nM [^3H]-cGMP (GE Healthcare), 0.25 nM PDE10A2 with or without a specific test compound. A range of concentrations of the potential inhibitor was used to generate data for calculating the concentration of inhibitor resulting in 50% of the effect (e.g. IC50, the concentration of the competitor inhibiting PDE10A2 activity 50%). Non-specific activity was tested without the enzyme. The reaction was initiated by addition of the substrate solution (cGMP and [^3H]-cGMP) and allowed to progress for 30 minutes at room temperature. The reaction was terminated by transferring 50 μl of the reaction mixture into an OptiPlate (Perkin Elmer) containing 25 μl of YSi-SPA scintillation beads (GE Healthcare) in 18 mM zinc sulphate solution (stop reagent). After 1 h under shaking, the plate was centrifuged one minute at 1000 rpm to allow beads to settle. Afterwards, radioactive counts were measured on a Perkin Elmer TopCount Scintillation plate reader.
# The catalytic domain of human PDE10A2, residues serine 449 to aspartate 789, was amplified by PCR using cDNA (Origene) and the oligonucleotides 5′-GGGGACAAGTTTGT […]-3′ (with AttB1 recombination site in bold and thrombin protease cleavage site in italics) and 5′-[…]-3′ (with AttB2 recombination site in bold) which conferred Gateway recombination sites. The PCR product was used in a BP recombination reaction with pDONR221 to generate pENTR Thm-PDE10A2(S449-D789) which was DNA sequence verified and then used in an LR recombination reaction with a Gateway modified version of pET11a. The resulting expression vector, placT7.2H6-(gwl)-Thm-PDE10A2(S449-D789) was DNA sequence confirmed and transformed into E. coli strain BL21(DE3) pLysS and recombinant protein was produced in TB medium at 20° C. by induction to a final IPTG concentration of 0.5 mM at an optical density of 1.0 at 600 nm for 20 hours. About 30% of the protein was in the soluble fraction of the cell homogenate. The protein was purified using sequential chromatography on Ni-NTA and HiTrapQ/HiTrapS. After thrombin digest at room temperature a HiTrapChelating/HiTrap Benzamindin chromatography removed impurities, uncleaved protein and thrombin. Final purification of PDE10A2(S449-D789) was performed on a Superdex 75 size exclusion chromatography equilibrated with 25 mM HEPES pH 8.4, 0.15 M NaCl. The yield of pure protein was 2 mg/liter of culture volume is relatively low. The purity of the protein was >95%, monomeric and monodisperse as shown by SDS-PAGE, HPLC and analytical ultracentrifugation.
# T1 sequence (Q9Y233 715-1055): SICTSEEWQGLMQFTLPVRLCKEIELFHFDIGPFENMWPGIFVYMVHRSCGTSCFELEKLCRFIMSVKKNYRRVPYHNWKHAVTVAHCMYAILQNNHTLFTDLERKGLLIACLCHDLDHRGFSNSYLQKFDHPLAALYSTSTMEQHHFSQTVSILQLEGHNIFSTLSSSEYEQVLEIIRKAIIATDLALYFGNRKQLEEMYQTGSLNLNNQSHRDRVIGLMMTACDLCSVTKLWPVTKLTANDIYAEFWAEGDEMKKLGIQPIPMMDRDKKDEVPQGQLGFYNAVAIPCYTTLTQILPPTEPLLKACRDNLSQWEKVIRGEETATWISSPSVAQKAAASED
row,Structure (SMILES),pIC50
1,"O=c1ccn(-c2cncc(Cl)c2)nc1-c1ccnn1-c1cccc(Cl)c1 [Example 53, 3-[2-(3-Chloro-phenyl)-2H-pyrazol-3-yl]-1-(5-chloro-pyridin-3-yl)-1H-pyridazin-4-one]",7.19
2,"C#Cc1cccc(-n2nccc2-c2nn(-c3ccncc3)ccc2=O)c1 [Example 99, 3-[2-(3-Ethynyl-phenyl)-2H-pyrazol-3-yl]-1-pyridin-4-yl-1H-pyridazin-4-one]",7.74
3,"O=c1ccn(-c2cccnc2)nc1-c1ccnn1-c1ccc2c(c1)OCCO2 [Example 34, 3-[2-(2,3-Dihydro-benzo[1,4]dioxin-6-yl)-2H-pyrazol-3-yl]-1-pyridin-3-yl-1H-pyridazin-4-one]",7.09
4,"Cc1cncc(-n2ccc(=O)c(-c3ccnn3-c3ccc4c(c3)OCCO4)n2)c1 [Example 36, 3-[2-(2,3-Dihydro-benzo[1,4]dioxin-6-yl)-2H-pyrazol-3-yl]-1-(5-methyl-pyridin-3-yl)-1H-pyridazin-4-one]",7.15
5,"O=c1ccn(-c2cncc(OC(F)F)c2)nc1-c1ccnn1-c1cccc2ncccc12 [Example 89, 1-(5-Difluoromethoxy-pyridin-3-yl)-3-(2-quinolin-5-yl-2H-pyrazol-3-yl)-1H-pyridazin-4-one]",7.34
6,"O=c1ccn(-c2cccnc2)nc1-c1ccnn1-c1cccc2ncccc12 [Example 84, 1-Pyridin-3-yl-3-(2-quinolin-5-yl-2H-pyrazol-3-yl)-1H-pyridazin-4-one]",6.77
7,"CN(C)S(=O)(=O)c1cccc(-n2nccc2-c2nn(-c3ccncc3)ccc2=O)c1 [Example 28, N,N-Dimethyl-3-[5-(4-oxo-1-pyridin-4-yl-1,4-dihydro-pyridazin-3-yl)-pyrazol-1-yl]-benzenesulfonamide]",5.49
8,"O=c1ccn(-c2ccncc2)nc1-c1ccnn1-c1cccc2cnccc12 [Example 21, 3-(2-Isoquinolin-5-yl-2H-pyrazol-3-yl)-1-pyridin-4-yl-1H-pyridazin-4-one]",7.55
9,"NS(=O)(=O)c1ccc(-n2nccc2-c2nn(-c3ccncc3)ccc2=O)cc1 [Example 8, 4-[5-(4-Oxo-1-pyridin-4-yl-1,4-dihydro-pyridazin-3-yl)-pyrazol-1-yl]-benzenesulfonamide]",5.20
10,"O=c1ccn(-c2ccncc2)nc1-c1ccnn1-c1ccnc(Cl)c1 [Example 23, 3-[2-(2-Chloro-pyridin-4-yl)-2H-pyrazol-3-yl]-1-pyridin-4-yl-1H-pyridazin-4-one]",5.92
11,"Cc1cc(-n2nccc2-c2nn(-c3ccncc3)ccc2=O)ccn1 [Example 19, 3-[2-(2-Methyl-pyridin-4-yl)-2H-pyrazol-3-yl]-1-pyridin-4-yl-1H-pyridazin-4-one]",6.38
12,"O=c1ccn(-c2cncc3ccccc23)nc1-c1ccnn1-c1cccc(Cl)c1 [Example 66, 3-[2-(3-Chloro-phenyl)-2H-pyrazol-3-yl]-1-isoquinolin-4-yl-1H-pyridazin-4-one]",7.00
13,"O=C(O)c1cccc(-n2nccc2-c2nn(-c3ccncc3)ccc2=O)c1 [Example 5, 3-[5-(4-Oxo-1-pyridin-4-yl-1,4-dihydro-pyridazin-3-yl)-pyrazol-1-yl]-benzoic acid]",6.05
14,"COC(=O)c1cccc(-n2nccc2-c2nn(-c3ccncc3)ccc2=O)c1 [Example 10, 3-[5-(4-Oxo-1-pyridin-4-yl-1,4-dihydro-pyridazin-3-yl)-pyrazol-1-yl]-benzoic acid methyl ester]",7.32
15,"O=c1ccn(-c2cccnc2)nc1-c1ccnn1-c1ccccn1 [Example 33, 1-Pyridin-3-yl-3-(2-pyridin-2-yl-2H-pyrazol-3-yl)-1H-pyridazin-4-one]",5.53
16,"Cc1cc(-n2nccc2-c2nn(-c3ccc(Cl)nc3)ccc2=O)ccn1 [Example 88, 1-(6-Chloro-pyridin-3-yl)-3-[2-(2-methyl-pyridin-4-yl)-2H-pyrazol-3-yl]-1H-pyridazin-4-one]",5.95
17,"O=c1ccn(-c2cncc(F)c2)nc1-c1ccnn1-c1ccnc2ccc(F)cc12 [Example 49, 1-(5-Fluoro-pyridin-3-yl)-3-[2-(6-fluoro-quinolin-4-yl)-2H-pyrazol-3-yl]-1H-pyridazin-4-one]",6.79
18,"Cc1ccc(-n2nccc2-c2nn(-c3ccncc3)ccc2=O)cc1 [Example 11, 1-Pyridin-4-yl-3-(2-p-tolyl-2H-pyrazol-3-yl)-1H-pyridazin-4-one]",6.99

# Now from value to molecule:
row,pIC50,Structure (SMILES)
1,7.51,"O=c1ccn(-c2ccc3cnccc3c2)nc1-c1ccnn1-c1ccccc1F [Example 100, 3-[2-(2-Fluoro-phenyl)-2H-pyrazol-3-yl]-1-isoquinolin-6-yl-1H-pyridazin-4-one]"
2,6.32,"N#Cc1cncc(-n2ccc(=O)c(-c3ccnn3-c3ccccc3F)n2)c1 [Example 87, 5-{3-[2-(2-Fluoro-phenyl)-2H-pyrazol-3-yl]-4-oxo-4H-pyridazin-1-yl}-nicotinonitrile]"
3,7.70,"O=c1ccn(-c2cncc(Cl)c2)nc1-c1ccnn1-c1ccnc2ccccc12 [Example 51, 1-(5-Chloro-pyridin-3-yl)-3-(2-quinolin-4-yl-2H-pyrazol-3-yl)-1H-pyridazin-4-one]"
4,6.51,"N#Cc1cc(-n2ccc(=O)c(-c3ccnn3-c3ccccc3F)n2)ccn1 [Example 96, 4-{3-[2-(2-Fluoro-phenyl)-2H-pyrazol-3-yl]-4-oxo-4H-pyridazin-1-yl}-pyridine-2-carbonitrile]"
5,6.94,"O=c1ccn(-c2ccncc2)nc1-c1ccnn1-c1ccccc1F [Example 4, 3-[2-(2-Fluoro-phenyl)-2H-pyrazol-3-yl]-1-pyridin-4-yl-1H-pyridazin-4-one]"
6,8.05,"O=c1ccn(-c2ccncc2)nc1-c1ccnn1-c1ccnc2ccccc12 [Example 20, 1-Pyridin-4-yl-3-(2-quinolin-4-yl-2H-pyrazol-3-yl)-1H-pyridazin-4-one]"
7,6.91,"O=c1ccn(-c2ccnc(Cl)c2)nc1-c1ccnn1-c1ccnc2ccc(F)cc12 [Example 55, 1-(2-Chloro-pyridin-4-yl)-3-[2-(6-fluoro-quinolin-4-yl)-2H-pyrazol-3-yl]-1H-pyridazin-4-one]"
8,7.18,"O=c1ccn(-c2ccnc(Cl)c2)nc1-c1ccnn1-c1ccnc2ccccc12 [Example 54, 1-(2-Chloro-pyridin-4-yl)-3-(2-quinolin-4-yl-2H-pyrazol-3-yl)-1H-pyridazin-4-one]"
9,7.06,"O=c1ccn(-c2cccnc2)nc1-c1ccnn1-c1ccnc2ccc(F)cc12 [Example 50, 3-[2-(6-Fluoro-quinolin-4-yl)-2H-pyrazol-3-yl]-1-pyridin-3-yl-1H-pyridazin-4-one]"
10,6.09,"O=c1ccn(-c2ccncc2)nc1-c1ccnn1-c1cccc2cccnc12 [Example 26, 1-Pyridin-4-yl-3-(2-quinolin-8-yl-2H-pyrazol-3-yl)-1H-pyridazin-4-one]"
11,6.64,"O=c1ccn(-c2ccncc2)nc1-c1ccnn1-c1ccccc1Cl [Example 12, 3-[2-(2-Chloro-phenyl)-2H-pyrazol-3-yl]-1-pyridin-4-yl-1H-pyridazin-4-one]"
12,7.16,"O=c1ccn(-c2ccncc2)nc1-c1ccnn1-c1ccccc1 [Example 30, 3-(2-Phenyl-2H-pyrazol-3-yl)-1-pyridin-4-yl-1H-pyridazin-4-one]"
13,6.55,"O=c1ccn(-c2ccnc(C(F)(F)F)c2)nc1-c1ccnn1-c1ccccc1F [Example 94, 3-[2-(2-Fluoro-phenyl)-2H-pyrazol-3-yl]-1-(2-trifluoromethyl-pyridin-4-yl)-1H-pyridazin-4-one]"
14,6.38,"COc1cc(-n2ccc(=O)c(-c3ccnn3-c3cccc(F)c3)n2)ccn1 [Example 40, 3-[2-(3-Fluoro-phenyl)-2H-pyrazol-3-yl]-1-(2-methoxy-pyridin-4-yl)-1H-pyridazin-4-one]"

# From US9187455B2, “Substituted pyridazines as PDE10A inhibitors” (Hoffmann-La Roche Inc., priority 2009, dated 2015)
